From ChEMBL document CHEMBL5241112, “Insights into the recent progress in the medicinal chemistry of pyranopyrimidine analogs” (RSC Med Chem, 2022)
≈ marks a conversion by molar mass, not a printed value. Values belong to the molecule of their own block, whether it stands above or below them.

How the values were obtained:
[1] = test system: Bacillus subtilis; test: Antibiofilm activity against Bacillus subtilis MTCC 121 assessed as inhibition of biofilm incubated for 24 hrs by crystal violet staining based spectrophotometry; assay type: functional, organism-based; conditions: MTCC 121, 24 h
[2] = test system: Bacillus subtilis; test: Antibacterial activity against Bacillus subtilis MTCC 121 assessed as bacterial growth inhibition incubated for 24 hrs by broth microdilution method; assay type: functional
[3] = test system: Staphylococcus aureus; test: Antibacterial activity against Staphylococcus aureus MTCC 96 assessed as minimum bactericidal concentration incubated for 24 hrs by broth microdilution method; assay type: functional
[4] = test system: Staphylococcus aureus; test: Antibacterial activity against Staphylococcus aureus MLS-16 MTCC 2940 assessed as bacterial growth inhibition incubated for 24 hrs by broth microdilution method; assay type: functional
[5] = test system: Escherichia coli; test: Antibacterial activity against Escherichia coli MTCC 739 assessed as minimum bactericidal concentration incubated for 24 hrs by broth microdilution method; assay type: functional
[6] = test system: Staphylococcus aureus; test: Antibacterial activity against Staphylococcus aureus MTCC 96 assessed as bacterial growth inhibition incubated for 24 hrs by broth microdilution method; assay type: functional
[7] = test system: Pichia kudriavzevii; test: Antifungal activity against Candida krusei MTCC 3020 assessed as inhibition of fungal growth incubated for 24 hrs by agar well diffusion method; assay type: functional
[8] = test system: Pichia sporocuriosa; test: Antifungal activity against Pichia sporocuriosa MTCC 4755 assessed as inhibition of fungal growth incubated for 24 hrs by agar well diffusion method; assay type: functional
[9] = test system: Candida albicans; test: Antifungal activity against Candida albicans MTCC 227 assessed as inhibition of fungal growth incubated for 24 hrs by agar well diffusion method; assay type: functional
[10] = test system: Micrococcus luteus; test: Antibacterial activity against Micrococcus luteus MTCC 2470 assessed as bacterial growth inhibition incubated for 24 hrs by broth microdilution method; assay type: functional
[11] = test system: Staphylococcus aureus; test: Antibiofilm activity against Staphylococcus aureus MTCC 96 assessed as inhibition of biofilm incubated for 24 hrs by crystal violet staining based spectrophotometry; assay type: functional, organism-based; conditions: MTCC 96, 24 h
[12] = test system: Raoultella planticola; test: Antibacterial activity against Raoultella planticola MTCC 530 assessed as minimum bactericidal concentration incubated for 24 hrs by broth microdilution method; assay type: functional; conditions: Klebsiella planticola
[13] = test system: Candida albicans; test: Antifungal activity against Candida albicans MTCC 1637 assessed as inhibition of fungal growth incubated for 24 hrs by agar well diffusion method; assay type: functional
[14] = test system: Micrococcus luteus; test: Antibacterial activity against Micrococcus luteus MTCC 2470 assessed as minimum bactericidal concentration incubated for 24 hrs by broth microdilution method; assay type: functional
[15] = test system: Nakaseomyces glabratus; test: Antifungal activity against Candida glabrata MTCC 3019 assessed as inhibition of fungal growth incubated for 24 hrs by agar well diffusion method; assay type: functional
[16] = test system: Staphylococcus aureus; test: Antibiofilm activity against Staphylococcus aureus MLS-16 MTCC 2940 assessed as inhibition of biofilm incubated for 24 hrs by crystal violet staining based spectrophotometry; assay type: functional, organism-based; conditions: MLS-16 MTCC 2940, 24 h
[17] = test system: Raoultella planticola; test: Antibacterial activity against Raoultella planticola MTCC 530 assessed as bacterial growth inhibition incubated for 24 hrs by broth microdilution method; assay type: functional; conditions: Klebsiella planticola
[18] = test system: Escherichia coli; test: Antibacterial activity against Escherichia coli MTCC 739 assessed as bacterial growth inhibition incubated for 24 hrs by broth microdilution method; assay type: functional
[19] = test system: Candida albicans; test: Antifungal activity against Candida albicans MTCC 854 assessed as inhibition of fungal growth incubated for 24 hrs by agar well diffusion method; assay type: functional
[20] = test system: Raoultella planticola; test: Antibiofilm activity against Raoultella planticola MTCC 530 assessed as inhibition of biofilm incubated for 24 hrs by crystal violet staining based spectrophotometry; assay type: functional, organism-based; conditions: Klebsiella planticola, MTCC 530, 24 h
[21] = test system: Staphylococcus aureus; test: Antibacterial activity against Staphylococcus aureus MLS-16 MTCC 2940 assessed as minimum bactericidal concentration incubated for 24 hrs by broth microdilution method; assay type: functional
[22] = test system: Escherichia coli; test: Antibiofilm activity against Escherichia coli MTCC 739 assessed as inhibition of biofilm incubated for 24 hrs by crystal violet staining based spectrophotometry; assay type: functional, organism-based; conditions: MTCC 739, 24 h
[23] = test system: Candida albicans; test: Antifungal activity against Candida albicans MTCC 183 assessed as inhibition of fungal growth incubated for 24 hrs by agar well diffusion method; assay type: functional
[24] = test system: Candida parapsilosis; test: Antifungal activity against Candida parapsilosis MTCC 1744 assessed as inhibition of fungal growth incubated for 24 hrs by agar well diffusion method; assay type: functional; conditions: Lodderomyces parapsilosis
[25] = test system: Bacillus subtilis; test: Antibacterial activity against Bacillus subtilis MTCC 121 assessed as minimum bactericidal concentration incubated for 24 hrs by broth microdilution method; assay type: functional
[26] = test system: Micrococcus luteus; test: Antibiofilm activity against Micrococcus luteus MTCC 2470 assessed as inhibition of biofilm incubated for 24 hrs by crystal violet staining based spectrophotometry; assay type: functional, organism-based; conditions: MTCC 2470, 24 h
[27] = Antioxidant activity assessed as hydroxyl radical scavenging activity incubated for 5 mins by spectrophotometric analysis; assay type: functional; set-up: concentration or dose not given beside the values
[28] = organism: Capra hircus; test: Inhibition of goat lens AR at 100 uM incubated for 10 mins in presence of NADPH by spectroscopic analysis
[29] = organism: Capra hircus; test: Inhibition of goat lens AR assessed as gibbs binding free energy
[30] = Antioxidant activity assessed as DPPH radical scavenging activity incubated for 20 mins by spectrophotometric analysis; assay type: functional; set-up: concentration or dose not given beside the values
[31] = test system: Human alphaherpesvirus 1; test: Antiviral activity against HSV-1 assessed as inhibition of viral replication at 20 ug; assay type: functional; set-up: scale not given: the % may be the effect or the level left; conditions: dose 20 µg
[32] = test system: Human alphaherpesvirus 1; test: Antiviral activity against HSV-1 assessed as inhibition of viral replication at 40 ug; assay type: functional; set-up: scale not given: the % may be the effect or the level left; conditions: dose 40 µg
[33] = test system: HT-29; test: Antiproliferative activity against human HT-29 cells assessed as reduction in cell viability by MTT assay; assay type: functional, cell-based
[34] = test system: MDA-MB-231; test: cells; conditions: Homo sapiens
[35] = test system: PANC-1; test: Antiproliferative activity against human PANC-1 cells assessed as reduction in cell viability by MTT assay; assay type: functional, cell-based
[36] = test system: Klebsiella pneumoniae; test: Antibacterial activity against Klebsiella pneumoniae assessed as diameter of inhibition zone at 100 ug/ml by disc diffusion method; assay type: functional; conditions: read-out: DIZ
[37] = test system: Staphylococcus aureus; test: Antibacterial activity against Staphylococcus aureus assessed as diameter of inhibition zone at 100 ug/ml by disc diffusion method; assay type: functional; conditions: read-out: DIZ
[38] = test system: Klebsiella pneumoniae; test: Antibacterial activity against Klebsiella pneumoniae MTCC 109 assessed as diameter of inhibition zone at 0.1 mg/ml incubated for 24 hrs by agar well diffusion method; assay type: functional; conditions: read-out: DIZ
[39] = test system: Escherichia coli; test: Antibacterial activity against Escherichia coli MTCC 723 assessed as diameter of inhibition zone at 0.1 mg/ml incubated for 24 hrs by agar well diffusion method; assay type: functional; conditions: read-out: DIZ
[40] = test system: Escherichia coli; test: Antibacterial activity against Escherichia coli ATCC 25922 assessed as diameter of inhibition zone at 50 mg/ml incubated for 24 hrs by paper disk diffusion method; assay type: functional; conditions: read-out: DIZ
[41] = test system: Pseudomonas aeruginosa; test: Antibacterial activity against Pseudomonas aeruginosa MTCC 741 assessed as diameter of inhibition zone at 0.1 mg/ml incubated for 24 hrs by agar well diffusion method; assay type: functional; conditions: read-out: DIZ
[42] = test system: Klebsiella pneumoniae; test: Antibacterial activity against Klebsiella pneumoniae MGH 78578 assessed as diameter of inhibition zone at 50 mg/ml incubated for 24 hrs by paper disk diffusion method; assay type: functional; conditions: read-out: DIZ
[43] = test system: Escherichia coli; test: Antibacterial activity against Escherichia coli assessed as diameter of inhibition zone at 100 ug/ml by disc diffusion method; assay type: functional; conditions: read-out: DIZ
[44] = test system: Staphylococcus aureus; test: Antibacterial activity against Staphylococcus aureus MTCC 87 assessed as diameter of inhibition zone at 0.1 mg/ml incubated for 24 hrs by agar well diffusion method; assay type: functional; conditions: read-out: DIZ
[45] = test system: Staphylococcus aureus; test: Antibacterial activity against Staphylococcus aureus ATCC6538-P assessed as inhibition of bacterial growth incubated for 24 hrs by disk diffusion method; assay type: functional
[46] = test system: Streptococcus pneumoniae; test: Antibacterial activity against Streptococcus pneumoniae ATCC BAA-255/R6 assessed as inhibition of bacterial growth incubated for 24 hrs by disk diffusion method; assay type: functional
[47] = test system: Aspergillus fumigatus; test: Antifungal activity against Aspergillus fumigatus ATCC204305 assessed as inhibition of […] growth incubated for 24 hrs by disk diffusion method; assay type: functional
[48] = test system: Bacillus subtilis; test: Antibacterial activity against Bacillus subtilis assessed as diameter of inhibition zone at 100 ug/ml by disc diffusion method; assay type: functional; conditions: read-out: DIZ
[49] = Antioxidant activity assessed as trolox equivalent of ABTS radical scavenging activity and measured after 6 mins by UV-vis spectrophotometry; assay type: functional
[50] = target: Polyunsaturated fatty acid 5-lipoxygenase (Homo sapiens, UniProt P09917); test: Inhibition of 5-LOX (unknown origin) by colorimetric analysis
[51] = cells; conditions: Homo sapiens, Macrophage
[52] = test system: Serratia marcescens; test: Antibacterial activity against Serratia marcescens assessed as diameter of inhibition zone by disc diffusion method; assay type: functional
[53] = test system: Aspergillus ochraceus; test: Antifungal activity against Aspergillus ochraceus assessed as diameter of inhibition zone by disc diffusion method; assay type: functional
[54] = test system: Penicillium chrysogenum; test: Antifungal activity against Penicillium chrysogenum assessed as diameter of inhibition zone by disc diffusion method; assay type: functional
[55] = test system: Bacillus cereus; test: Antibacterial activity against Bacillus cereus assessed as diameter of inhibition zone by disc diffusion method; assay type: functional

Chain of Polyunsaturated fatty acid 5-lipoxygenase (P09917 whole entry): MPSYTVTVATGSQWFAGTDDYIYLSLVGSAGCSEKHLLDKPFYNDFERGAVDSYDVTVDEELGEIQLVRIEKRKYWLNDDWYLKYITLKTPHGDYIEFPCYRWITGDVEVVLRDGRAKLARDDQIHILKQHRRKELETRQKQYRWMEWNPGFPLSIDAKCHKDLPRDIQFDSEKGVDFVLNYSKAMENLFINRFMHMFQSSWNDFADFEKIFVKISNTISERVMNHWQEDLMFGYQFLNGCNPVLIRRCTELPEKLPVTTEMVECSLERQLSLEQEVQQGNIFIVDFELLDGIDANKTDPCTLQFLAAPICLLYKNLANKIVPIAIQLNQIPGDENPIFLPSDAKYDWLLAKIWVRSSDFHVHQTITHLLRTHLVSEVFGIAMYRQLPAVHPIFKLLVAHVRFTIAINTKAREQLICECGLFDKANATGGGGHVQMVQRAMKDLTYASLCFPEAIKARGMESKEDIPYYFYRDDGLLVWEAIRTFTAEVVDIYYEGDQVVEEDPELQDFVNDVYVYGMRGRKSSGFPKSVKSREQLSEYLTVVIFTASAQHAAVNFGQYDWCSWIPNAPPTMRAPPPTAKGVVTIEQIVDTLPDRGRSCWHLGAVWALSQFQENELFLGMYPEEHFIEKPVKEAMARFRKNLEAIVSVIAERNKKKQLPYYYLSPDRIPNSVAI

Structure (SMILES): Cc1nn(-c2ccccc2)c(Cl)c1C1c2[nH]c(=O)[nH]c(=O)c2Oc2c1c(=O)oc1ccccc21 (stereo not given)
Activity [27]: 54.3% | inhibition [28]: 60% | deltaG [29]: -10.4 kcal/mol | Activity [30]: 59.1%

Structure (SMILES): Cc1nc2c(c(=O)[nH]1)C(c1ccc([N+](=O)[O-])cc1)c1c(n[nH]c1C)O2 (stereo not given)
Activity [31]: 63% | Activity [32]: 95%

Structure (SMILES): CCOC(=O)C1=C(N)Oc2[nH]c(=O)[nH]c(=O)c2C1[C@H](O)[C@@H](O)[C@H](O[C@H]1O[C@H](CO)[C@@H](O)[C@H](O)[C@H]1O)[C@H](O)CO (stereo not given in full)
Activity [49]: 5.24 µM

Structure (SMILES): CCOC(=O)c1nc2c3c(ncn2n1)Oc1ccc2cc(Br)ccc2c1C3
diameter of the inhibition zone (DIZ) [52]: 24 mm | diameter of the inhibition zone (DIZ) [53]: 17 mm | diameter of the inhibition zone (DIZ) [54]: 22 mm | diameter of the inhibition zone (DIZ) [55]: 23 mm

Continued, in another order:

IC50 [1]: 2.5 µM | MIC [2]: 7.8 µg/mL (≈ 17.6 µM) | MIC [4]: 15.6 µg/mL (≈ 35.2 µM) | MIC [6]: 15.6 µg/mL (≈ 35.2 µM) | MIC [7]: 7.8 µg/mL (≈ 17.6 µM) | MIC [8]: 7.8 µg/mL (≈ 17.6 µM) | MIC [9]: 7.8 µg/mL (≈ 17.6 µM) | MIC [10]: 15.6 µg/mL (≈ 35.2 µM) | IC50 [11]: 2.5 µM | MIC [13]: 7.8 µg/mL (≈ 17.6 µM) | MIC [15]: 7.8 µg/mL (≈ 17.6 µM) | IC50 [16]: 2.5 µM | MIC [18]: 7.8 µg/mL (≈ 17.6 µM) | MIC [19]: 7.8 µg/mL (≈ 17.6 µM) | IC50 [22]: 2.5 µM | MIC [23]: 7.8 µg/mL (≈ 17.6 µM) | MIC [24]: 7.8 µg/mL (≈ 17.6 µM) | IC50 [26]: 2.5 µM
Structure (SMILES): COc1ccc(Nc2ncnc3c2C(c2ccc(OC)cc2)c2c(cc(C)oc2=O)O3)cc1 (stereo not given)
MBC [3]: 7.8 µg/mL (≈ 17.6 µM) | MBC [5]: 7.8 µg/mL (≈ 17.6 µM) | MBC [12]: 7.8 µg/mL (≈ 17.6 µM) | MBC [14]: 7.8 µg/mL (≈ 17.6 µM) | MIC [17]: 7.8 µg/mL (≈ 17.6 µM) | IC50 [20]: 2.5 µM | MBC [21]: 7.8 µg/mL (≈ 17.6 µM) | MBC [25]: 7.8 µg/mL (≈ 17.6 µM)

IC50 [33]: 25.6 µM | IC50 [34]: 30.6 µM | IC50 [35]: 24.4 µM
Structure (SMILES): COc1cc([C@@H]2c3cc4c(cc3[C@@H](O[C@@H]3O[C@@H]5CO[C@@H](C)O[C@H]5[C@H](O)[C@H]3O)[C@H]3COC(=O)[C@H]23)OCO4)cc(OC)c1O [ETOPOSIDE]

MIC [45]: 31.3 µg/mL (≈ 85.7 µM) | MIC [46]: 7.8 µg/mL (≈ 21.3 µM) | MIC [47]: 15.6 µg/mL (≈ 42.7 µM)
Structure (SMILES): CC1(C)S[C@@H]2[C@H](NC(=O)[C@H](N)c3ccc(O)cc3)C(=O)N2[C@H]1C(=O)O [AMOXICILLIN]
zone of inhibition at 100 µg/mL [36]: 18 mm | zone of inhibition at 100 µg/mL [37]: 17.5 mm | zone of inhibition at 100 µg/mL [38]: 13.6 mm | zone of inhibition at 100 µg/mL [39]: 14.9 mm | zone of inhibition at 50000 µg/mL [40]: 24 mm | zone of inhibition at 100 µg/mL [41]: 15 mm | zone of inhibition at 50000 µg/mL [42]: 15 mm | zone of inhibition at 100 µg/mL [43]: 19.5 mm | zone of inhibition at 100 µg/mL [44]: 13.8 mm | zone of inhibition at 100 µg/mL [48]: 15.5 mm

IC50 [50]: 1.93 µM | IC50 [51]: 3.5 µM
Structure (SMILES): N=c1c2c(ncn1-c1ccccc1)Oc1[nH]c(=S)[nH]c(=O)c1C2c1ccc(Cl)cc1 (stereo not given)
